The supplement of paper PMC11208160

experiment: recombinant barcode read abundance after kanamycin selection (control-corrected) (log10(CPM+1)); higher = more efficient recombination; sequences stand for … in AGTGCAGAGAAAATCGGCCAGTTTTCTCTGCCTGCAGTCCGCATGCCGT…ATTTATGCAGCGGACTGCCTTTCTCCCAAAGTGATAAACCGGACAGTATCATGGACCGGTTTTCCCGGTAATCCGTATTTGCAAGGTTGGTTTCACT; site = the 11-nt target
How it was run: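 Values are log10(CPM+1) from a pooled E. coli screen of targets paired with IS621 bridge RNA target-binding loops. Recombination efficiency here means counts per million of recombinant-junction barcodes, averaged and control-corrected. Plates were chloramphenicol/ampicillin LB agar for the control and chloramphenicol/ampicillin/kanamycin with 0.1 mM IPTG, two replicates each.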

Sequence	recombinant barcode read abundance (log10)
GGTGCCCGCTGGGTTCTAACCTGTTGCCGGC [GGTGCCCCTCG_LTGcore_GC_RTGcore_GC] (site GGTGCCCCTCG) (LTG core: GC, RTG core: GC)	0.148
GGTGCCCTATGGGTTCTAACCTGTTGCCGTA [GGTGCCCCTCG_LTGcore_TA_RTGcore_TA] (site GGTGCCCCTCG) (LTG core: TA, RTG core: TA)	0.298
GGTGCCCTGTGGGTTCTAACCTGTTGCCGAG [GGTGCCCCTCG_LTGcore_TG_RTGcore_CT] (site GGTGCCCCTCG) (LTG core: TG, RTG core: CT)	0.108
GTCGCCCAATGGGTTCTAACCTGTTGCTATT [GTCGCCCCTTA_LTGcore_AA_RTGcore_AA] (site GTCGCCCCTTA) (LTG core: AA, RTG core: AA)	0.305
GTCGCCCCGTGGGTTCTAACCTGTTGCTACG [GTCGCCCCTTA_LTGcore_CG_RTGcore_CG] (site GTCGCCCCTTA) (LTG core: CG, RTG core: CG)	0.316
GTCGCCCCTTGGGTTCTAACCTGTTGCTAAC [GTCGCCCCTTA_LTGcore_CT_RTGcore_GT] (site GTCGCCCCTTA) (LTG core: CT, RTG core: GT)	0.102
GTCGCCCCTTGGGTTCTAACCTGTTGCTAAG [GTCGCCCCTTA_LTGcore_CT_RTGcore_CT] (site GTCGCCCCTTA) (LTG core: CT, RTG core: CT)	0.234
GTCGCCCCTTGGGTTCTAACCTGTTGCTATA [GTCGCCCCTTA_LTGcore_CT_RTGcore_TA] (site GTCGCCCCTTA) (LTG core: CT, RTG core: TA)	0.0812
GTCGCCCCTTGGGTTCTAACCTGTTGCTATG [GTCGCCCCTTA_LTGcore_CT_RTGcore_CA] (site GTCGCCCCTTA) (LTG core: CT, RTG core: CA)	0.725
GTCGCCCCTTGGGTTCTAACCTGTTGCTATT [GTCGCCCCTTA_LTGcore_CT_RTGcore_AA] (site GTCGCCCCTTA) (LTG core: CT, RTG core: AA)	0.214
GTCGCCCGGTGGGTTCTAACCTGTTGCTAAG [GTCGCCCCTTA_LTGcore_GG_RTGcore_CT] (site GTCGCCCCTTA) (LTG core: GG, RTG core: CT)	0.0246
GTCGCCCGTTGGGTTCTAACCTGTTGCTAAC [GTCGCCCCTTA_LTGcore_GT_RTGcore_GT] (site GTCGCCCCTTA) (LTG core: GT, RTG core: GT)	0.146
GTCGCCCTATGGGTTCTAACCTGTTGCTATA [GTCGCCCCTTA_LTGcore_TA_RTGcore_TA] (site GTCGCCCCTTA) (LTG core: TA, RTG core: TA)	0.394
GTCGCCCTTTGGGTTCTAACCTGTTGCTAAA [GTCGCCCCTTA_LTGcore_TT_RTGcore_TT] (site GTCGCCCCTTA) (LTG core: TT, RTG core: TT)	0.0974
GTCGCCCTTTGGGTTCTAACCTGTTGCTAAG [GTCGCCCCTTA_LTGcore_TT_RTGcore_CT] (site GTCGCCCCTTA) (LTG core: TT, RTG core: CT)	0.137
TAAGAATAATGGGTTCTAACCTGTTGCCTAG [TAAGAATCTAG_LTGcore_AA_RTGcore_CT] (site TAAGAATCTAG) (LTG core: AA, RTG core: CT)	0.232
TAAGAATATTGGGTTCTAACCTGTTGCCTAG [TAAGAATCTAG_LTGcore_AT_RTGcore_CT] (site TAAGAATCTAG) (LTG core: AT, RTG core: CT)	0.124
TAAGAATCATGGGTTCTAACCTGTTGCCTTG [TAAGAATCTAG_LTGcore_CA_RTGcore_CA] (site TAAGAATCTAG) (LTG core: CA, RTG core: CA)	1.03
TAAGAATCGTGGGTTCTAACCTGTTGCCTCG [TAAGAATCTAG_LTGcore_CG_RTGcore_CG] (site TAAGAATCTAG) (LTG core: CG, RTG core: CG)	0.0781
TAAGAATCTTGGGTTCTAACCTGTTGCCTAG [TAAGAATCTAG_LTGcore_CT_RTGcore_CT] (site TAAGAATCTAG) (LTG core: CT, RTG core: CT)	1.3
TAAGAATCTTGGGTTCTAACCTGTTGCCTAT [TAAGAATCTAG_LTGcore_CT_RTGcore_AT] (site TAAGAATCTAG) (LTG core: CT, RTG core: AT)	0.0438
TAAGAATCTTGGGTTCTAACCTGTTGCCTTA [TAAGAATCTAG_LTGcore_CT_RTGcore_TA] (site TAAGAATCTAG) (LTG core: CT, RTG core: TA)	0.138
TAAGAATCTTGGGTTCTAACCTGTTGCCTTC [TAAGAATCTAG_LTGcore_CT_RTGcore_GA] (site TAAGAATCTAG) (LTG core: CT, RTG core: GA)	0.243

Sequence	recombinant barcode read abundance (log10)
TAAGAATGATGGGTTCTAACCTGTTGCCTTC [TAAGAATCTAG_LTGcore_GA_RTGcore_GA] (site TAAGAATCTAG) (LTG core: GA, RTG core: GA)	0.176
TAAGAATTGTGGGTTCTAACCTGTTGCCTAG [TAAGAATCTAG_LTGcore_TG_RTGcore_CT] (site TAAGAATCTAG) (LTG core: TG, RTG core: CT)	0.153
TAAGAATTTTGGGTTCTAACCTGTTGCCTAA [TAAGAATCTAG_LTGcore_TT_RTGcore_TT] (site TAAGAATCTAG) (LTG core: TT, RTG core: TT)	0.156
TAGAGGGATTGGGTTCTAACCTGTTGCGGAT [TAGAGGGCTCC_LTGcore_AT_RTGcore_AT] (site TAGAGGGCTCC) (LTG core: AT, RTG core: AT)	0.237
TAGAGGGCCTGGGTTCTAACCTGTTGCGGAG [TAGAGGGCTCC_LTGcore_CC_RTGcore_CT] (site TAGAGGGCTCC) (LTG core: CC, RTG core: CT)	2.4
TAGAGGGCTTGGGTTCTAACCTGTTGCGGAT [TAGAGGGCTCC_LTGcore_CT_RTGcore_AT] (site TAGAGGGCTCC) (LTG core: CT, RTG core: AT)	0.779
TAGAGGGCTTGGGTTCTAACCTGTTGCGGCA [TAGAGGGCTCC_LTGcore_CT_RTGcore_TG] (site TAGAGGGCTCC) (LTG core: CT, RTG core: TG)	1.66
TAGAGGGGCTGGGTTCTAACCTGTTGCGGGC [TAGAGGGCTCC_LTGcore_GC_RTGcore_GC] (site TAGAGGGCTCC) (LTG core: GC, RTG core: GC)	0.0588
TAGAGGGGTTGGGTTCTAACCTGTTGCGGAC [TAGAGGGCTCC_LTGcore_GT_RTGcore_GT] (site TAGAGGGCTCC) (LTG core: GT, RTG core: GT)	0.189
TAGAGGGTATGGGTTCTAACCTGTTGCGGAG [TAGAGGGCTCC_LTGcore_TA_RTGcore_CT] (site TAGAGGGCTCC) (LTG core: TA, RTG core: CT)	0.204
TAGAGGGTATGGGTTCTAACCTGTTGCGGTA [TAGAGGGCTCC_LTGcore_TA_RTGcore_TA] (site TAGAGGGCTCC) (LTG core: TA, RTG core: TA)	0.481
TCGCGACACTGGGTTCTAACCTGTTGCCGGT [TCGCGACCTCG_LTGcore_AC_RTGcore_AC] (site TCGCGACCTCG) (LTG core: AC, RTG core: AC)	0.102
TCGCGACAGTGGGTTCTAACCTGTTGCCGCT [TCGCGACCTCG_LTGcore_AG_RTGcore_AG] (site TCGCGACCTCG) (LTG core: AG, RTG core: AG)	0.128
TCGCGACATTGGGTTCTAACCTGTTGCCGAG [TCGCGACCTCG_LTGcore_AT_RTGcore_CT] (site TCGCGACCTCG) (LTG core: AT, RTG core: CT)	0.0137
TCGCGACCATGGGTTCTAACCTGTTGCCGTG [TCGCGACCTCG_LTGcore_CA_RTGcore_CA] (site TCGCGACCTCG) (LTG core: CA, RTG core: CA)	0.139
TCGCGACCCTGGGTTCTAACCTGTTGCCGGG [TCGCGACCTCG_LTGcore_CC_RTGcore_CC] (site TCGCGACCTCG) (LTG core: CC, RTG core: CC)	0.353
TCGCGACCTTGGGTTCTAACCTGTTGCCGCC [TCGCGACCTCG_LTGcore_CT_RTGcore_GG] (site TCGCGACCTCG) (LTG core: CT, RTG core: GG)	0.0891
TCGCGACCTTGGGTTCTAACCTGTTGCCGTT [TCGCGACCTCG_LTGcore_CT_RTGcore_AA] (site TCGCGACCTCG) (LTG core: CT, RTG core: AA)	0.0373
TCGCGACGTTGGGTTCTAACCTGTTGCCGAG [TCGCGACCTCG_LTGcore_GT_RTGcore_CT] (site TCGCGACCTCG) (LTG core: GT, RTG core: CT)	0.391
TCTACCCACTGGGTTCTAACCTGTTGCTGGT [TCTACCCCTCA_LTGcore_AC_RTGcore_AC] (site TCTACCCCTCA) (LTG core: AC, RTG core: AC)	0.045
TCTACCCATTGGGTTCTAACCTGTTGCTGAT [TCTACCCCTCA_LTGcore_AT_RTGcore_AT] (site TCTACCCCTCA) (LTG core: AT, RTG core: AT)	0.00785
TCTACCCCCTGGGTTCTAACCTGTTGCTGGG [TCTACCCCTCA_LTGcore_CC_RTGcore_CC] (site TCTACCCCTCA) (LTG core: CC, RTG core: CC)	0.0201
